Laboratory results reported in PubChem BioAssay AID2060357 (Molecular Pharmacology Branch, DTP, NCI, 2025).

Tested on: 292921-168-R-J2-PDC spheroids with HUVEC/MSC, viability
Experiment: Anticancer human tumor 292921-168-R-J2-PDC patient-derived pancreatic carcinoma cell line growth inhibition [TAK]
Conditions: for IC50: curve of first compound; for viability, T/C: stronger effect = lower value
Procedure, shortened: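 Tumor cells were grown as spheroids with HUVEC and hMSC (60:25:15) and treated with targeted agents combined with TAK-243 or ipatasertib. Drugs were tested in half-log steps down from near the clinical Cmax, or from 10 microM where Cmax was unknown.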

[1] = second compound 0.3 µM, first compound 0.0316 µM
[2] = second compound 0.3 µM, first compound 0.1 µM
[3] = second compound 0.3 µM, first compound 0.316 µM
[4] = second compound 0.3 µM, first compound 1 µM
[5] = second compound 0.949 µM, first compound 0.0316 µM
[6] = second compound 0.949 µM, first compound 0.1 µM
[7] = second compound 0.949 µM, first compound 0.316 µM
[8] = second compound 0.949 µM, first compound 1 µM
[9] = second compound 3 µM, first compound 0.0316 µM
[10] = second compound 3 µM, first compound 0.1 µM
[11] = second compound 3 µM, first compound 0.316 µM
[12] = second compound 3 µM, first compound 1 µM
[13] = second compound 9.49 µM, first compound 0.0316 µM
[14] = second compound 9.49 µM, first compound 0.1 µM
[15] = second compound 9.49 µM, first compound 0.316 µM
[16] = second compound 9.49 µM, first compound 1 µM
[17] = second compound 30 µM, first compound 0.0316 µM
[18] = second compound 30 µM, first compound 0.1 µM
[19] = second compound 30 µM, first compound 0.316 µM
[20] = second compound 30 µM, first compound 1 µM
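Also: spheroids exposed to drugs for seven days before readout.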

SMILES | IC50 (second compound 0.3 µM) | IC50 (second compound 0.949 µM) | IC50 (second compound 3 µM) | IC50 (second compound 9.49 µM) | IC50 (second compound 30 µM) | viability, T/C [1] | viability, T/C [2] | viability, T/C [3] | viability, T/C [4] | viability, T/C [5] | viability, T/C [6] | viability, T/C [7] | viability, T/C [8] | viability, T/C [9] | viability, T/C [10] | viability, T/C [11] | viability, T/C [12] | viability, T/C [13] | viability, T/C [14] | viability, T/C [15] | also measured
COc1c(OCCCN2CCOCC2)ccc2c3n(c(=NC(=O)c4cnc(N)nc4)nc12)CCN3 + CC(C)NCC(C(=O)N1CCN(c2ncnc3c2C(C)CC3O)CC1)c1ccc(Cl)cc1 | 4.15 nM | < 3.16 nM | < 3.16 nM | < 3.16 nM | < 3.16 nM | 19.1% | 13.5% | 10.2% | 9.21% | 20% | 13.1% | 9.66% | 8.79% | 15.2% | 12.4% | 9.94% | 8.66% | 12% | 9.29% | 8.18% | viability, T/C (second compound 0.3 µM, first compound 0.00316 µM): 55.2%; viability, T/C (second compound 0.3 µM, first compound 0.01 µM): 33.2%; viability, T/C (second compound 0.949 µM, first compound 0.00316 µM): 43.5%; viability, T/C (second compound 0.949 µM, first compound 0.01 µM): 27.5%; viability, T/C (second compound 3 µM, first compound 0.00316 µM): 30.2%; viability, T/C (second compound 3 µM, first compound 0.01 µM): 21.4%; viability, T/C (second compound 9.49 µM, first compound 0.00316 µM): 26.4%; viability, T/C (second compound 9.49 µM, first compound 0.01 µM): 15.9%; viability, T/C [16]: 7.72%; viability, T/C (second compound 30 µM, first compound 0.00316 µM): 19.8%; viability, T/C (second compound 30 µM, first compound 0.01 µM): 14.1%; viability, T/C [17]: 10.3%; viability, T/C [18]: 7.72%; viability, T/C [19]: 6.76%; viability, T/C [20]: 7.15%
Cc1nc(NC(=O)N2CCCC2C(N)=O)sc1-c1ccnc(C(C)(C)C(F)(F)F)c1 (stereo not given) + CC(C)NCC(C(=O)N1CCN(c2ncnc3c2C(C)CC3O)CC1)c1ccc(Cl)cc1 | 295 nM | 185 nM | 184 nM | 70.8 nM | < 31.6 nM | 75.5% | 67.2% | 47.2% | 34.2% | 78.5% | 58.4% | 42.8% | 30.5% | 68.5% | 61.7% | 39.3% | 27.1% | 59.8% | 46.8% | 27.8% | viability, T/C (second compound 0.3 µM, first compound 3.16 µM): 26.2%; viability, T/C (second compound 0.3 µM, first compound 10 µM): 20%; viability, T/C (second compound 0.949 µM, first compound 3.16 µM): 24.1%; viability, T/C (second compound 0.949 µM, first compound 10 µM): 19.6%; viability, T/C (second compound 3 µM, first compound 3.16 µM): 23.4%; viability, T/C (second compound 3 µM, first compound 10 µM): 15.3%; viability, T/C [16]: 21.1%; viability, T/C (second compound 9.49 µM, first compound 3.16 µM): 17.8%; viability, T/C (second compound 9.49 µM, first compound 10 µM): 12.7%; viability, T/C [17]: 41.1%; viability, T/C [18]: 33.2%; viability, T/C [19]: 23.9%; viability, T/C [20]: 16.4%; viability, T/C (second compound 30 µM, first compound 3.16 µM): 13.4%; viability, T/C (second compound 30 µM, first compound 10 µM): 9.1%
